Data: publication PMC9697519, “New Theonellapeptolides from Indonesian Marine Sponge Theonella swinhoei as Anti-Austerity Agents” (Marine Drugs, 2022)
Where a SMILES comes first, the peptide text is derived from it. Bridges are numbered along the chain shown (N, C = ends). [ ]: non-standard residue; d: D form. The star is where a group is joined. dNMeaIle = CC[C@H](C)[C@@H](NC)C(=O)O; d(aIle) = CC[C@H](C)[C@@H](N)C(=O)O; NMeI = CC[C@H](C)[C@H](NC)C(=O)O; dNMeL = CN[C@H](CC(C)C)C(=O)O; NMeV = CN[C@H](C(=O)O)C(C)C; Methoxyacetyl = COCC(=O)*; βAla = NCCC(=O)O

Experiments:
[1] = tested on: Bacillus cereus NBRC 15305; details: NBRC 15305, 22 h
Procedure: (§1) Previously, three theonellapeptolide members capped with a unique acyl group at their N-termini such as methylsulfinylacetyl, methylsulfanylacetyl, and acetyl were isolated by Tsuda et al. from Okinawan marine sponge Theonella sp.. Furthermore, the antibacterial activity of these variants was evaluated against four bacterial and six fungal strains. […] To the best of our knowledge, there is no report on the antibacterial activity of theonellapeptolides with methoxyacetyl group. This encouraged us to investigate the antibacterial activity of 1–6 against the Gram-negative bacterium Escherichia coli JW5503 and the Gram-positive bacteria Bacillus cereus NBRC 15305 and Kocuria rhizophila NBRC 12708.
(§2) After incubation for 22 h (30 °C), the obtained optical density was recorded using Tecan infinite® M200 plate reader at 600 nm to determine percent growth inhibition.

Escherichia coli JW5503 = details: JW5503, 22 h
Procedure: as §1, §2

[2] = tested on: Kocuria rhizophila NBRC 12708; details: NBRC 12708, 22 h
Procedure: as §1, §2

MIA PaCa-2 cells [3] = experiment: Morphological analysis, EB/AO double-staining; format: cell-based, human; details: 5 and 10 μM, NDM, 24 h, 24-well plate
Procedure: Thus, more detailed studies were performed on the major compound theonellapeptolide IId (4). Its effect on morphology status of MIA PaCa-2 cells under starvation condition was studied using a double-staining assay with EB (ethidium bromide) and AO (acridine orange). The membranes of dead or dying cells are penetrated by EB and staining in red while living cells are stained by AO, a cell-membrane-permeable dye emitting bright green fluorescence. Both AO and EB stains are known as DNA-intercalating agents. During cell death, EB and AO enter into the cell after the integrity of the cell membrane is disrupted, which facilitates the emission of orange fluorescence. […] In Figure 6A, treatment with 4 led to a dose-dependent increase in EB-stained cells emitting red fluorescence and showing drastic alteration of cell morphology. […] Real-time anti-austerity potential tracking of 4 showing morphological changes in MIA PaCa-2 cells under NDM was monitored using a Nikon sCMOS camera oxford instrument, Hamamatsu Photonics/Ti-E, for 24 h. […]
Figure 6 (A) Morphological changes of MIA PaCa-2 cells induced by 4 in a nutrient-deprived medium (NDM). […] The cells were stained with ethidium bromide (EB) and acridine orange (AO), and photographed in the fluorescence (red and green) under phase contrast modes using a Nikon sCMOS camera oxford instrument, Hamamatsu Photonics/Ti-E. (B) Structure of bioactive compound 4. […]

MIA PaCa-2 cells [4] = experiment: Time-lapse live imaging under NDM; format: cell-based, human; details: 10 μM in NDM, 37 °C, 5% CO2, imaged 24 h
Procedure: Thus, more detailed studies were performed on the major compound theonellapeptolide IId (4). Its effect on morphology status of MIA PaCa-2 cells under starvation condition was studied using a double-staining assay with EB (ethidium bromide) and AO (acridine orange). The membranes of dead or dying cells are penetrated by EB and staining in red while living cells are stained by AO, a cell-membrane-permeable dye emitting bright green fluorescence. Both AO and EB stains are known as DNA-intercalating agents. During cell death, EB and AO enter into the cell after the integrity of the cell membrane is disrupted, which facilitates the emission of orange fluorescence. In this study, MIA PaCa-2 cells treated with 5 and 10 μM of theonellapeptolide IId (4) were incubated in starvation condition (NDM) for 24 h, and stained with the EB and AO dyes. In Figure 6A, treatment with 4 led to a dose-dependent increase in EB-stained cells emitting red fluorescence and showing drastic alteration of cell morphology. […] To show the details of cell death in real time, live evidence of the anticancer potential of 4 was studied. A time-lapse live imaging anti-pancreatic cancer experiment under NDM condition was performed for the first time in a multi position in the dish, for monitoring the effect of 4. Moreover, MIA PaCa-2 cells were treated with 10 μM of compound 4 in NDM and incubated at 37 °C at 5% CO2. Real-time anti-austerity potential tracking of 4 showing morphological changes in MIA PaCa-2 cells under NDM was monitored using a Nikon sCMOS camera oxford instrument, Hamamatsu Photonics/Ti-E, for 24 h. Images were captured every 10 min by rotating at several fixed positions in the dish under the phase contrast mode on a CCD Camera imaging system for 24 h. Treatment with 4 under NDM inhibited cell mobility immediately within 60 min and altered morphology of MIA PaCa-2 cells after 4 h was observed, then cell death started after 8 h, finally in 12 h complete cell death was observed (Figure 7, Movies S1 and S2, Supporting Information). In the control, MIA PaCa-2 cells survived 24 h until the end of the experiment in the NDM (Figure 7). Thus, the result of this study provided the first simultaneous multi-site live evidence of the anti-pancreatic cancer therapeutic potential of the compound theonellapeptolide IId (4) against MIA PaCa-2 cells as marine-based anti-austerity agents. […]
Real-time anti-austerity potential tracking anti-pancreatic cancer activity of 4 by showing morphological changes in MIA PaCa-2 cells under NDM was monitored using a Nikon sCMOS camera Oxford instrument, Hamamatsu Photonics/Ti-E, for 24 h. […]

CC[C@H](C)[C@H]1C(=O)NCCC(=O)N[C@H]([C@@H](C)CC)C(=O)N(C)[C@@H](C(C)C)C(=O)N[C@@H](C)C(=O)NCCC(=O)N[C@H](CC(C)C)C(=O)N(C)[C@H]([C@@H](C)CC)C(=O)O[C@H](C)[C@H](NC(=O)[C@@H](CC(C)C)N(C)C(=O)[C@@H](NC(=O)COC)C(C)C)C(=O)NCCC(=O)N[C@H](CC(C)C)C(=O)N1C [Compound 4, theonellapeptolide IId] (Methoxyacetyl-V[dNMeL]T[βAla][dL][NMeI][βAla][d(aIle)][NMeV]A[βAla][dL][dNMeaIle]; ester 3-C)
MIC, BC [1]: > 66 µM
MIC, EC (Escherichia coli JW5503): > 66 µM
MIC, KR [2]: > 66 µM
EB/AO staining of cells (MIA PaCa-2 cells [3]): exclusive red EB
time after which altered cell morphology was observed (MIA PaCa-2 cells [4]): 4 h
time after which cell death started (MIA PaCa-2 cells [4]): 8 h
time to complete cell death (MIA PaCa-2 cells [4]): 12 h
time to inhibition of cell mobility (MIA PaCa-2 cells [4]): ≤ 60 min
